According to US20250059229A1, “Compositions and Methods for Selective Labeling of Secondary Amines” (Emory University, priority 2021, published 2025):

Experiment: Fluorescence (chromophoric) properties of 2H-indazole-3-carbaldehyde
Assay type: physicochemical
Details: FIG. 9D

fluorescence wavelength: about 500 nm
increase in fluorescence as compared to unmodified PAF (compared to unmodified PAF): 100 fold
SMILES: O=Cc1[nH]nc2ccccc12 [2H-indazole-3-carbaldehyde]
